Key:
[1] = biological target: T1, N1-Src (Rattus norvegicus, UniProt Q9WUD9); assay: inhibition of N1-Src phosphorylation of GST-Y by free soluble peptide; format: biochemical; design: His; made in house; host or cells: E. coli; conditions: free soluble peptide titrated with 5 nM N1-Src and GST-Y; phosphotyrosine immunoblot densitometry; n = 3
Experimental: Previous studies have shown that soluble SH3 ligands can enhance Src family kinase activity in vitro[20][21]. […] This experiment raised the possibility that PDN1 could act as an N1-Src inhibitor in cells. […] We observed that COS7 cells transfected with N1-Src-FLAG underwent a striking change in morphology within 48 h (Fig. 3a). Similar to that previously observed in Xenopus epithelial cells, overexpression of the kinase induced the growth of neurite-like processes (Fig. 3b) and an approximate 35% reduction in area of the cell soma (Fig. 3c). […] Using cell morphology as a readout, we assessed the effect of CFP-PDN1 and PDN1(P5A) on N1-Src activity in cells. […] We also assessed the effect of PDN1 on N2-Src expressing cells because the first five amino acids of its SH3 insert are identical to that in N1-Src[3].
Figure 2 PDN1 inhibits N1-Src activity in vitro. GST-Y was incubated with 5 nM N1-Src and the indicated concentrations of either PDN1 or PDN1(P5A) and the extent of phosphorylation determined by densitometry of phosphotyrosine immunoreactivity. […]
Phosphorylation reactions were performed as previously described, prepared in kinase reaction buffer (100 mM Tris, 10 mM MgCl2, pH 7.5) and initiated by the addition of pre-warmed ATP (0.5 mM final concentration) and incubated at 30 °C for the indicated times. […] Due to the non-quantitative measurement of V, Vmax was not determined. […]

[2] = biological target: T1, N1-Src; assay: in vitro kinase assay, N1-Src phosphorylation of GST-Y-PDN substrates; format: biochemical; design: His; made in house; host or cells: E. coli; conditions: PDN1 fused to an ideal Src substrate
Experimental: Figure 1 Identification of a novel ligand consensus sequence for the N1-Src SH3 domain. (a) Schematic of the kinase assay used to validate the effect of potential SH3 domain ligands on the phosphorylation of an ideal tyrosine motif (Y in bold) located upstream of a 10 aa linker and 12 aa phage peptide. (b) GST-Y-PDN1–6 substrates at 0.3, 0.9, 2.8 or 8.3 μM were phosphorylated in vitro with 5 nM C- or N1-Src at 30 °C and the phosphorylation detected by anti-phosphotyrosine immunoblot. Immunoblots are representative of three independent experiments. (c) Alignment of the phage display peptides ranked by N1-Src selectivity derived from results in (b). Shaded residues represent the common consensus sequence. […] (e) GST-Y-PDN1 substrates with the indicated point mutations (see insert) at 8.3 μM were phosphorylated by 5 nM N1-Src and the extent of phosphorylation was measured by densitometry of phosphotyrosine immunoreactivity. […]
The PDN peptides were tested for specificity for the N1-Src SH3 domain using a kinase assay in which a GST fusion of an ideal Src substrate peptide (Y) and a putative SH3 ligand peptide can distinguish SH3 domain specificity (Fig. 1a). Based on our previous study, we chose a range of substrate concentrations at which an enhancement in phosphorylation by docking to canonical peptide ligands for the C-Src SH3 domain can be detected (8.3 μM and below)[12]. […]

[3] = tested on: C-Src SH3 domain; conditions: cited from earlier work
Text: The PDN1 consensus motif, RxPxxTxK, represents a novel SH3 ligand and lacks a canonical PxxP, thus confirming the six amino acid N1-Src splice insert has a dramatic effect on the structure of its SH3 domain. The ligand binding site in the majority of SH3 domains, including C-Src, comprises three pockets, two of which interact with the core xP motifs and one that adds specificity through binding flanking residues. […] Indeed, one of the few ...

[4] = tested on: N1-Src; assay: isoform specificity of N1-Src shRNA co-expressed with C-, N1- or N2-Src in COS7 cells; format: cell-based, rat; conditions: COS7, co-transfected 72 h with C-, N1- or N2-Src-FLAG; anti-FLAG immunoblot
[5] = tested on: hippocampal neurons; assay: neurite growth of hippocampal neurons after N1-Src shRNA knockdown; format: cell-based, rat; conditions: pSUPER-GFP shRNA, 48 h and 96 h post-transfection, versus empty plasmid or non-targeting shRNA, n = 90 neurons, Kruskal-Wallis
Experimental: We next took advantage of the specificity of PDN1 to investigate the role of endogenous N1-Src in neurite outgrowth in cultured neurons. CFP-PDN1 or -PDN1(P5A) was transfected into 1 DIV CGNs and their morphology analysed after […]. During CGN development in vivo and immediately after plating in vitro, the cells grow two processes before polarising to yield a single axon and the second process retracts to become a dendrite and further dendrites are initiated. The axon then extends further before bifurcating. […] To further confirm that N1-Src regulates neurite growth we employed an shRNA expressing plasmid (pSUPER-GFP) to knockdown N1-Src in neurons. […] The successful N1-Src shRNA plasmid was transfected into hippocampal neurons, and the length of the longest neurite in GFP-positive neurons was assessed at 48 h and 96 h post-transfection. […] Thus, perturbing N1-Src activity with PDN1 or knockdown of the protein produces the same neurite phenotype in primary neuronal cultures.
Figure 5 Knockdown of N1-Src phenocopies the action of PDN1 in cultured neurons. […] (c,d) Cultured hippocampal neurons transfected with pSUPER-GFP (control) or pSUPER-GFP encoding N1-Src specific shRNA were analysed for length of longest neurite at 48 or 96 h. […] Data were normalised to the 48 h control and plotted as mean ± SEM, n = 90 neurons, with 30 cells analysed per condition in 3 independent experiments. […]

WHRMPAYTAKYP [PDN1, 12mer peptide derived from a phage display screen of the N1-Src SH3 domain]
inhibition of GST-Y phosphorylation [1]: inhibited GST-Y phosphorylation in a dose dependent manner
enhancement of substrate phosphorylation by N1-Src [2]: enhanced the specific in vitro phosphorylation of an ideal substrate by N1-Src

RSLRPLPPLPPRPPF [phage display ligand selected by the PI3-kinase SH3 domain]
binding to the C-Src SH3 domain [3]: did not bind the C-Src SH3 domain

5′-GGAAGGTGGATGTCAGAGA-3′ (expressed or natural sequence; target site or template, no part of the molecule) [N1-Src shRNA]
isoform specificity of knockdown [4]: confirmed isoform specificity
inhibition of neurite growth (length of longest neurite) [5]: significant time-dependent inhibition of neurite growth

Source: paper PMC5318895, “Inhibition of N1-Src kinase by a specific SH3 peptide ligand reveals a role for N1-Src in neurite elongation by L1-CAM” (Scientific Reports, 2017)
